{
  "source": "patent US12678440B2",
  "about": "“Compositions and methods for treating misfolded protein ocular disorders” (CASE WESTERN RESERVE UNIVERSITY, priority 2020, dated 2026)",
  "key": {"WT rhodopsin": {"tested_on": "WT rhodopsin", "assay": "Immunoblot of rhodopsin, MTX plus BafA1 or MG-132, NIH3T3 (RHO^WT/GFP) cells", "format": "cell-based", "procedure": "(§1) Cells were seeded in 6-well plates at a density of 5×10^5 cells/well and cultured at 37° C. with 5% CO2 for 17 h. The medium was replaced with a fresh medium containing a corresponding concentration of compounds. After treatment for 24 h, cells collected and lysed in 150 μL PBS containing 0.1% SDS and complete protease inhibitor cocktail with 12 s of sonication on ice. Retina samples were lysed in 300 μL per retina of PBS containing 0.1% SDS and complete protease inhibitor cocktail under 24 s of sonication on ice. Protein concentrations were determined by measurements of OD280 nm using a Nanodrop spectrometer. To immunoblot rhodopsin, one hundred μg of total protein for NIH3T3 (RHO^P23H/GFP) cells, or twenty μg of total protein for NIH3T3 (RHO^WT/GFP) cells was loaded per well onto an SDS-PAGE gel. To detect other proteins, fifty μg of total protein was loaded per well. After separation by electrophoresis in 10% and 16% SDS-PAGE gels, proteins were transferred to a nitrocellulose membrane using a wet membrane electrotransfer cassette followed by blocking with 5% bovine serum albumin in PBS containing 0.05% Tween 20 for 1 h. The membranes were incubated with primary antibodies at 4° C. overnight following with appropriate secondary antibodies for 1 h at room temperature. […]"}, "[1]": {"tested_on": "SQSTM1/p62 and LC3-II in retinae of Rho^P23H/+ knock-in mice", "assay": "Autophagy flux in retinae after intravitreal injection (immunoblots of SQSTM1/p62 and LC3)", "format": "in vivo, mouse", "details": "25 pmol IVI at PND 15, 48 h, vs PBS", "procedure": "as §1"}, "Rho^P23H/+ mice": {"tested_on": "Rho^P23H/+ mice", "assay": "Retinal immunohistochemistry (IHC) after intravitreal injection", "format": "in vivo, mouse", "procedure": "The C57BL/6J (Rho^+/+) mice and Rho^P23H/P23H mice were purchased from Jackson Laboratory (Stock No 017628) generated by Dr. Krzysztof Palczewski's lab. The Rho^P23H/P23H mice were crossed with wild-type C57BL/6J mice to produce P23H heterozygotes mice. Genotyping for all strains was conducted as guided using forward and reverse primers: 1) GGTAGCACTGTTGGGCATCT (SEQ ID NO: 5); and 2) GACCCCACAGAGACAAGCTC (SEQ ID NO: 6), respectively. The PCR products at 573 and 399 bp indicated the P23H knock-in mutant and WT allele of the RHO gene, respectively. Mice were bred and housed under standard 12-h light/12-h dark conditions in the University of Pittsburgh animal facility. All animal experiments were approved by the University of Pittsburgh Institutional Animal Care and Use Committee (IACUC) following the guide for the Animal Welfare Act and Regulations.\nTo determine the effect of compounds on retina in vivo, we administered compounds directly into the vitreous space. Briefly, mice were treated with 1% tropicamide eye drops (Akorn, Lake Forest, IL USA) to dilate the pupils and then they were anesthetized with an intraperitoneal injection of ketamine (Henry Schein, Dublin, OH USA) at 80 mg/kg body weight (bw) and xylazine (Bimeda, Le Sueur, MN USA) at 7 mg/kg bw. One drop of 0.5% tetracaine hydrochloride (TCI, Tokyo, Japan) was applied to mouse eyes as topical anesthetics before injection. Eyes were kept lubricated during the injections by a 0.3% hypromellose eye gel (Alcon, Fort Worth, TX USA). A heating pad was used for maintaining body temperature. Mice were positioned to expose the sclera of the eyes. A 30-gauge needle (Medline, Northfield, IL USA) was used to puncture a hole through sclera behind limbus at a 45° angle. A 33-gauge blunt-end needle (Hamilton, Reno, NV USA) was used to be inserted into the hole and a total of 0.5 μL of sterile PBS or MTX in PBS was slowly injected into the posterior chamber and the needle was kept in place for about 30 seconds before a slow removal of the needle. A small amount of Triantibiotic ointment (Medline, Northfield, IL USA) was applied on the injection site to prevent infection. A single IVI with 25 or 100 pmol of MTX was administered to one eye of each Rho^P23H/+ mice at postnatal day (PND) 15, and PBS was injected to the other eye as vehicle control. We also performed four weekly IVIs of MTX or PBS to the second group of Rho^P23H/+ mouse eyes at PND 15, 22, 29 and 36.\nEyes were enucleated by a pair of curved-tip forceps and fixed in the freshly prepared 4% paraformaldehyde for 2 h. Fixed eyes were dehydrated sequentially in 5, 10, 20 and 40% sucrose solutions in PBS each for 30 min at room temperature. Finally, eyes were incubated in a mixture of 40% sucrose in PBS and O.C.T. compound (FisherScientific, Houston, TX USA) at 1:1 volume ratio for overnight at 4° C. before they are embedded in the same mixed solution in an orientation-specific manner and frozen in liquid nitrogen-bathed isobutene. Twelve-micron retinal cross-sections were made by a microtome at −16° C. and those containing the optic nerve head were applied onto a SuperFrost glass slide (FisherScientific, Houston, TX USA). These slides were then used for IHC. After rehydration and permeabilization in PBST for 15 min, retinal sections were incubated in 5% goat serum for 30 min, and then they were incubated with PBS containing the mouse 1D4 anti-rhodopsin antibody (20 μg/mL) for 2 hours at room temperature in a humidified chamber. The retinal sections were washed with PBST for four times and incubated with Cy3 conjugated goat anti-mouse antibody (5 μg/mL) for 1 hour at room temperature. Hoechst 33342 (1:10000 dilution) was applied for 5 min to stain the nuclei. Sections were mounted with the ProlongGold mounting solution (ThermoFisher, Waltham, MA USA). Immunofluorescence images were then taken by a fluorescence microscope for low-magnification images and a confocal microscope for high-magnification images. […]"}, "[2]": {"tested_on": "P23H rhodopsin in Rho^P23H/P23H mice", "assay": "Retinal immunoblotting of P23H rhodopsin after IVI in Rho^P23H/P23H mice", "format": "in vivo, mouse", "details": "IVI 25 pmol at PND 15; 24, 48 and 72 h; vs PBS; data not shown", "procedure": "as §1"}, "rabbits": {"tested_on": "rabbits", "details": "1.76 μmol MTX (about 1 mM in vitreous); cited from earlier work"}, "[3]": {"details": "four IVIs of 25 pmol, PND 46, vs PBS, superior side, not inferior side"}, "[4]": {"details": "single IVI 25 pmol, PND 33, vs PBS, superior side, not inferior side"}},
  "data": [
    {"smiles": "CN(Cc1cnc2nc(N)nc(N)c2n1)c1ccc(C(=O)N[C@@H](CCC(=O)O)C(=O)O)cc1", "note": "[CL-009, N-[4-[[(2,4-diamino-6-pteridinyl)methyl]methylamino]benzoyl]-L-glutamic acid]", "values": [
      {"measurement": "WT rhodopsin level under BafA1 and MTX co-treatment (immunoblot)", "setting": "WT rhodopsin; 10 μM MTX + 100 nM BafA1, 24 h", "value": "accumulation of WT rhodopsin"},
      {"measurement": "WT rhodopsin accumulation under MG-132 plus MTX (immunoblot)", "setting": "WT rhodopsin; 10 μM MTX + 5 μM MG-132, 24 h", "value": "did not"},
      {"measurement": "LC3-II level in retinae", "setting": "[1]", "value": "increase"},
      {"measurement": "SQSTM1/p62 level in retinae", "setting": "[1]", "value": "decrease"},
      {"measurement": "retinal degeneration caused by MTX", "setting": "Rho^P23H/+ mice; 100 pmol IVI, Rho^P23H/+ mice", "value": "did not see obvious retinal degeneration"},
      {"measurement": "level of rhodopsin in the ONL (IHC)", "setting": "Rho^P23H/+ mice; [3]", "value": "lower"},
      {"measurement": "levels of rhodopsin in the OS (IHC)", "setting": "Rho^P23H/+ mice; [3]", "value": "significantly higher"},
      {"measurement": "nucleus number in the ONL", "setting": "Rho^P23H/+ mice; [3]", "value": "higher"},
      {"measurement": "rhodopsin in the OS (IHC)", "setting": "Rho^P23H/+ mice; [4]", "value": "significant increase"},
      {"measurement": "total rhodopsin level in retinae (IHC)", "setting": "Rho^P23H/+ mice; [4]", "value": "significant increase"},
      {"measurement": "ONL nucleus number", "setting": "Rho^P23H/+ mice; single IVI, PND 33, either side of the retina", "value": "No change"},
      {"measurement": "P23H rhodopsin level by retinal immunoblotting", "setting": "[2]", "value": "did not see consistently and statistically significant difference"},
      {"measurement": "retinal damage after intravitreal injection", "setting": "rabbits", "value": "Retinal damages were observed"}
    ]}
  ]
}
